# Measured values as given in patent publication US20220016200A1, “PHARMACEUTICAL COMPOSITION FOR THE TREATMENT OF CYSTIC FIBROSIS” (GALENUS G.H. AG, priority 2018, published 2022).
# Where two headings read alike, the source gives them in different places. Bridge positions count the residues as written; N and C are the ends. Square brackets hold non-standard residues; d marks the D form. Peptide text beside a SMILES is read from it. * marks the point of attachment. Heptanoyl(5-Me) = CCC(C)CCCC(=O)*; Dab = NCC[C@H](N)C(=O)O
# How the values were obtained:
# S. maltophilia 1237289 = test: Checkerboard colistin sulphate (CS) plus teicoplanin (TP), MIC/FIC and MBC/FBC; type: cell-based, Stenotrophomonas maltophilia; conditions: agent alone, CAMHB, 5*10^5 CFU/ml; for MIC: S. maltophilia 1237289
# Procedure: Checkerboard analysis to determine minimal inhibitory concentration (MIC)/fractional inhibitory concentration (FIC) and minimal […] (MBC)/fractional bacterial concentration (FBC) values of colistin sulphate (CS) plus teicoplanin (TP) for 6 Gram-negative strains with a bacterial load 5(1-10)*10^5 CFU/ml in a cation-adjusted Mueller-Hinton broth (CAMHB). • a. Antimicrobial stock solutions were prepared using sterile distilled water • b. CS was added along the ordinate; TP was added along the abscissa to 96 well, flat bottom, polystyrene panels with no treatment. Colistin alone was tested in triplicates. • c. Serial 2-fold dilutions starting with 640 μg/ml CS and 640 μg/ml TP were made; 15 μl volume of the serial dilutions were added for each agent to the appropriate wells; final volume at 30 μl • d. For each agent tested alone an additional 15 μl media was added to the well. 30 μl were added in control wells where none of the agent was tested. The negative control well contains 150 μl media without any additions • e. From an overnight bacterial culture in tryptic soy broth, 100 μL was added to 10 mL of fresh tryptic soy broth. This was then incubated at 37° C. for 1.5 hour at 180 rpm. • f. Bacteria in 120 μl CAMHB were added to each well (end concentration 5(1-10)*10^5 CFU/ml) • g. […] Turbidity at OD600 is determined with a plate photometer • i. By using a one-time inoculator 3 μl from each well of the 96-well plate were transferred to three blood agar plates. The plates were incubated over night at 37° C. in an ambient air incubator • j. MIC values are defined as lowest concentration which restricts bacterial growth to OD600 ≤0.1 • k. MBC values were determined by visual reading the lowest concentration which inhibits 99.9% of the growth of bacteria in the wells • l. Determination of the fractional inhibitory concentration (FIC) index and fractional bactericidal concentration (FBC) index and characterization of antimicrobial interactions was assessed […]
# FIC calculation was carried out as: (MIC of drug A, tested in combination)/(MIC of drug A, tested alone)+(MIC of drug B, tested in combination)/(MIC of drug B, tested alone). FBC calculation was carried out just as well […]
# Interactive categories were calculated from checkerboard analysis using MIC results from testing each agent alone and MIC results from the combination wells adjacent to the wells with growth in them […]
# b. Indifference; FIC/FBC>0.5 to<4.0 c. Antagonism; FIC/FBC≥4.0 f. S. maltophilia 1237289 (IHMA), colistin resistant
# [1] = test system: A. nosocomialis strain (1461911 IHMA); test: Pneumonic mouse model, colistin resistant strain; type: in vivo, Acinetobacter nosocomialis; conditions: BALB/c mice, 3 per group, one intramuscular dose 24 hours after inoculation, combination groups stated together for both strains (6 mice)
# Procedure: (§1) One colistin susceptible (MIC 1 mg/L) A. nosocomialis strain (1204194 IHMA) and one colistin resistant (MIC 4 mg/L) A. nosocomialis strain (1461911 IHMA) are used. […] Fresh brain heart infusion broth (Merck, Darmstadt, Germany) bacterial cultures, in an aerobic atmosphere in the logarithmic growth phase (4-5 hours) at 37° C., are adjusted to a concentration of 1.0×10^6 colony forming units (CFU)/mL, as verified by both spectrophotometry (OD600 0.01-0.02 nm) and colony counting.
# A pneumonic mouse model was used. 8- to 12-week-old, specific-pathogen free, male or female BALB/c mice, with 25-35 g in weight, are used for the study Animals have free access to food and water except during experimental procedures. All studies are performed in accordance with the ethical guidelines for the care and use of laboratory animals, and the protocol is approved by an independent ethical commission.
# For inoculation, fresh inocula are prepared for each experiment from frozen stocks of the two A. nosocomialis isolates (1204194 and 1461911 IHMA). Broth cultures of freshly plated A. nosocomialis bacteria are grown to logarithmic phase overnight to an absorbance of 0.3 at 630 nm and diluted to 10^7 CFU/ml in saline. Mice are anesthetized by intraperitoneal (i.p.) injection of 12.5 mg/kg (5 μl) xylazine and 80 mg/kg (25 μl) ketamine and then inoculated intranasally with 0.05 ml of this bacterial suspension. […]
# [2] = test system: A. nosocomialis strain (1204194 IHMA); test: Colistin MIC of the susceptible strain used in the mouse model; type: cell-based; conditions: Acinetobacter nosocomialis; colistin susceptible A. nosocomialis strain 1204194 IHMA
# Procedure: as §1
smiles,measurement,setting,value
"CCC(C)CCCC(=O)N[C@@H](CCN)C(=O)N[C@H](C(=O)N[C@@H](CCN)C(=O)N[C@H]1CCNC(=O)[C@H]([C@@H](C)O)NC(=O)[C@H](CCN)NC(=O)[C@H](CCN)NC(=O)[C@H](CC(C)C)NC(=O)[C@@H](CC(C)C)NC(=O)[C@H](CCN)NC1=O)[C@@H](C)O (stereo partly drawn) [CS, colistin sulphate] ({Heptanoyl(5-Me)}-[Dab]T[Dab][Dab][Dab][dL]L[Dab][Dab]T; lactam 4-C)",MIC,S. maltophilia 1237289; after 48 h growth (values in brackets),(8) mg/l
same,MIC,"S. maltophilia 1237289; Stenotrophomonas maltophilia, 1237289, 24 h, 24 h, read-out: MIC",≤ 0.5 µg/mL
same,MBC,"S. maltophilia 1237289; Stenotrophomonas maltophilia, S. maltophilia, second of two rows (strain number not given; by order 1237289)",8 µg/mL
same,mice that survive until day 3,[1],0/3
same,MIC,[2],1 µg/mL
